According to ChEMBL document CHEMBL4742397, “Compositions and methods for regulating body weight and metabolic syndromes” (2018):
Calls of active or inactive are those of the source.

Experiments:
3T3-L1 [1] = test: Inhibition of lipid accumulation in mouse 3T3-L1 cells at 5 to 20 uM incubated for 6 days by Oil Red O staining based spectrometric assay; format: functional, cell-based; conditions: dose 5-20 µM, time 6.0 day
Mus musculus [2] = test: Anti-diabetic activity in high fat diet-fed C57BL/6J mouse model of obesity and diabetes assessed as improvement in glucose tolerance at 20 mg/kg, ip dosed daily for 2 weeks; format: functional, organism-based
3T3-L1 [3] = test: Inhibition of LD accumulation mouse 3T3-L1 cells using deuterium labeled glucose-d7 by SRS microscopy; format: functional, cell-based
Mus musculus [4] = test: Anti-diabetic activity in high fat diet-fed C57BL/6J mouse model of obesity and diabetes assessed as reduction of white adipose tissue at 20 mg/kg, ip dosed daily for 2 weeks; format: functional, organism-based
3T3-L1 [5] = test: Inhibition of lipid synthesis related gene expression in mouse 3T3-L1 cells assessed as reduction in SREBPlc expression at 20 uM incubated for 6 days by real-time PCR analysis; format: functional, cell-based; conditions: time 6.0 day
3T3-L1 [6] = test: Inhibition of lipid accumulation in mouse 3T3-L1 cells at 1 to 20 uM incubated for 6 days by Oil Red O staining based spectrometric assay; format: functional, cell-based; conditions: dose 1-20 µM, time 6.0 day
3T3-L1 [7] = test: Inhibition of lipid accumulation in mouse 3T3-L1 cells at 1 to 20 uM incubated for 6 days by Oil Red O staining based spectrometric assay relative to control; format: functional; conditions: dose 1-20 µM, time 6 day
3T3-L1 [8] = test: Effect on cytochrome B5 reductase 3 in mouse 3T3-L1 cells at 10 uM dosed during day 2 to 6 and followed by drug replacement every 48 hrs by LC-MS/MS analysis based proteomic analysis; format: functional; conditions: time 4.0 day
Mus musculus [9] = test: Anti-diabetic activity in high fat diet-fed C57BL/6J mouse model of obesity and diabetes assessed as reduction in serum leptin level at 20 mg/kg, ip dosed daily for 2 weeks; format: functional, organism-based
Mus musculus [10] = test: Anti-diabetic activity in high fat diet-fed C57BL/6J mouse model of obesity and diabetes assessed as reduction of white adipose tissue weight (epididymal adipose tissue ) at 20 mg/kg, ip dosed daily for 2 weeks; format: functional, organism-based
Mus musculus [11] = test: Effect on fecal energy content in high fat diet-fed C57BL/6J mouse model of obesity and diabetes at 20 mg/kg, ip dosed daily for 8 days; format: functional, organism-based; conditions: time 8.0 day
Mus musculus [12] = test: Anti-diabetic activity in high fat diet-fed C57BL/6J mouse model of obesity and diabetes assessed as reduction in insulin levels at 20 mg/kg, ip dosed daily for 2 weeks; format: functional, organism-based
3T3-L1 [13] = test: Inhibition of lipid synthesis related gene expression in mouse 3T3-L1 cells assessed as reduction in PPARgamma expression at 20 uM incubated for 6 days by real-time PCR analysis; format: functional, cell-based; conditions: time 6.0 day
Mus musculus [14] = test: Anti-diabetic activity in high fat diet-fed C57BL/6J mouse model of obesity and diabetes assessed as reduction of white adipose tissue weight (retroperitoneal adipose tissue ) at 20 mg/kg, ip dosed daily for 2 weeks; format: functional, organism-based
[15] = Hepato-toxicity in high fat diet-fed C57BL/6J mouse model of obesity and diabetes assessed as effect on ALT activity at 20 mg/kg, ip dosed daily for 2 weeks; format: organism-based; conditions: in vivo, 336 h
Mus musculus [16] = test: Anti-diabetic activity in high fat diet-fed C57BL/6J mouse model of obesity and diabetes assessed as reduction in blood glucose at 20 mg/kg, ip dosed daily for 2 weeks; format: functional, organism-based
Mus musculus [17] = test: Anti-diabetic activity in high fat diet-fed C57BL/6J mouse model of obesity and diabetes assessed as reduction in body weight at 20 mg/kg, ip dosed daily for 8 days; format: functional, organism-based; conditions: time 8.0 day
Mus musculus [18] = test: Anti-diabetic activity in high fat diet-fed C57BL/6J mouse model of obesity and diabetes assessed as improvement in blood lipid profile by measuring decrease in free cholesterol at 20 mg/kg, ip dosed daily for 2 weeks; format: functional, organism-based
Mus musculus [19] = test: Anti-diabetic activity in high fat diet-fed C57BL/6J mouse model of obesity and diabetes assessed as reduction in respiratory exchange ratio at 20 mg/kg, ip dosed daily for 2 weeks; format: functional, organism-based
3T3-L1 [20] = test: Inhibition of lipid accumulation in mouse 3T3-L1 cells at 10 to 20 uM incubated for 6 days by CARS microscopy; format: functional, cell-based; conditions: dose 10-20 µM, time 6.0 day
Mus musculus [21] = test: Anti-diabetic activity in high fat diet-fed C57BL/6J mouse model of obesity and diabetes assessed as reduction in food intake at 20 mg/kg, ip dosed daily for 2 weeks; format: functional; design: scale not given: the % may be the effect or the level left
3T3-L1 [22] = test: Inhibition of lipid synthesis related gene expression in mouse 3T3-L1 cells assessed as reduction in FAS expression at 20 uM incubated for 6 days by real-time PCR analysis; format: functional, cell-based; conditions: time 6.0 day
Mus musculus [23] = test: Anti-diabetic activity in high fat diet-fed C57BL/6J mouse model of obesity and diabetes assessed as reduction in energy expenditure at 20 mg/kg, ip dosed daily for 2 weeks; format: functional, organism-based
3T3-L1 [24] = test: Inhibition of lipid synthesis related gene expression in mouse 3T3-L1 cells assessed as reduction in SCD1 expression at 20 uM incubated for 6 days by real-time PCR analysis; format: functional, cell-based; conditions: time 6.0 day
Mus musculus [25] = test: Anti-diabetic activity in high fat diet-fed C57BL/6J mouse model of obesity and diabetes assessed as improvement in HOMA-IR levels at 20 mg/kg, ip dosed daily for 2 weeks; format: functional, organism-based
3T3-L1 [26] = test: Increase in 125 kDa inactive precursor form of SREBPl protein in mouse 3T3-L1 cells at 20 uM incubated for 6 days by Western blot analysis; format: functional, cell-based; conditions: time 6.0 day
Mus musculus [27] = test: Anti-diabetic activity in high fat diet-fed C57BL/6J mouse model of obesity and diabetes assessed as reduction of whole body fat mass at 20 mg/kg, ip dosed daily for 2 weeks; format: functional, organism-based
3T3-L1 [28] = test: Suppression of cholesterol levels in mouse 3T3-L1 cells; format: functional, cell-based
Mus musculus [29] = test: Anti-diabetic activity in high fat diet-fed C57BL/6J mouse model of obesity and diabetes assessed as reduction in food intake at 20 mg/kg, ip dosed daily for 8 days; format: functional, organism-based; conditions: time 8.0 day
3T3-L1 [30] = test: Inhibition of CE accumulation in mouse 3T3-L1 cells; format: functional, cell-based
3T3-L1 [31] = test: Inhibition of cholesterol uptake related gene expression in mouse 3T3-L1 cells assessed as reduction in SR-B1 expression at 20 uM incubated for 6 days by real-time PCR analysis; format: functional, cell-based; conditions: time 6.0 day
3T3-L1 [32] = test: Inhibition of lipid synthesis related gene expression in mouse 3T3-L1 cells assessed as reduction in MGAT1 expression at 20 uM incubated for 6 days by real-time PCR analysis; format: functional, cell-based; conditions: time 6.0 day
[33] = molecular target: T1, Sterol O-acyltransferase 1 (Mus musculus) (UniProt Q61263); test: Inhibition of ACAT in mouse 3T3-L1 cells assessed as reduction in accumulation of fluorescence-labeled CE by 25-NBD cholesterol based assay; format: cell-based
T1 sequence (whole entry): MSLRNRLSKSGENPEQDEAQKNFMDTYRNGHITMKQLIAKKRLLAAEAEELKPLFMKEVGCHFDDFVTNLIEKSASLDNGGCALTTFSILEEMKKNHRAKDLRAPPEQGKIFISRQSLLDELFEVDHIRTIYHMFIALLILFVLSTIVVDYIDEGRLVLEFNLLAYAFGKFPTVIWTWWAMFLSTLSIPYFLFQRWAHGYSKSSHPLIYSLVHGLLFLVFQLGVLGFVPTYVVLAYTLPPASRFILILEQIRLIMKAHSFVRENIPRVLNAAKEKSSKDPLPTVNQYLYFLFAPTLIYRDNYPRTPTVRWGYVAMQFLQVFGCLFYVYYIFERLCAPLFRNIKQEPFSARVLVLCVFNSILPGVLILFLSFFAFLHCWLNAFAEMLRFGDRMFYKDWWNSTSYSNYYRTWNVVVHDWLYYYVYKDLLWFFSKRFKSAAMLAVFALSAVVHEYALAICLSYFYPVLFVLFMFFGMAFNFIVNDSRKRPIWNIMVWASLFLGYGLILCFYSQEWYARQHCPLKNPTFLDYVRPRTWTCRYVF

Mus musculus [34] = test: Anti-diabetic activity in high fat diet-fed C57BL/6J mouse model of obesity and diabetes assessed as improvement in blood lipid profile by measuring decrease in TG level at 20 mg/kg, ip dosed daily for 2 weeks; format: functional, organism-based
Mus musculus [35] = test: Anti-diabetic activity in high fat diet-fed C57BL/6J mouse model of obesity and diabetes assessed as improvement in blood lipid profile by measuring decrease in CE level at 20 mg/kg, ip dosed daily for 2 weeks; format: functional, organism-based
3T3-L1 [36] = test: Inhibition of cholesterol uptake related gene expression in mouse 3T3-L1 cells assessed as reduction in CD36 expression at 20 uM incubated for 6 days by real-time PCR analysis; format: functional, cell-based; conditions: time 6.0 day
3T3-L1 [37] = test: Effect on superoxide dismutase 1 in mouse 3T3-L1 cells at 10 uM dosed during day 2 to 6 and followed by drug replacement every 48 hrs by LC-MS/MS analysis based proteomic analysis; format: functional; conditions: time 4.0 day
3T3-L1 [38] = test: Inhibition of lipid synthesis related gene expression in mouse 3T3-L1 cells assessed as reduction in DGAT2 expression at 20 uM incubated for 6 days by real-time PCR analysis; format: functional, cell-based; conditions: time 6.0 day
Mus musculus [39] = test: Anti-diabetic activity in high fat diet-fed C57BL/6J mouse model of obesity and diabetes assessed as reduction in total body weight gain at 20 mg/kg, ip dosed daily for 2 weeks; format: functional; design: scale not given: the % may be the effect or the level left

CCCCCCCCCCC(C)(C)C(=O)Nc1c(OC)cc(OC)cc1OC
active: inhibition (3T3-L1 [1])

CC(C)c1cc(C(C)C)c(CC(=O)NS(=O)(=O)Oc2c(C(C)C)cccc2C(C)C)c(C(C)C)c1 [AVASIMIBE]
Non-Toxic: Activity [15]
inactive: Activity (3T3-L1 [8]) | Activity (Mus musculus [11]) | Activity (3T3-L1 [37])
50%: Activity (Mus musculus [21])
active: Activity (Mus musculus [2]) | inhibition (3T3-L1 [3]) | Activity (Mus musculus [4]) | inhibition (3T3-L1 [5]) | inhibition (3T3-L1 [6]) Dose-dependent effect | Activity (Mus musculus [9]) | Activity (Mus musculus [10]) | Activity (Mus musculus [12]) | inhibition (3T3-L1 [13]) | Activity (Mus musculus [14]) | Activity (Mus musculus [16]) | Activity (Mus musculus [17]) | Activity (Mus musculus [18]) | Activity (Mus musculus [19]) | inhibition (3T3-L1 [20]) | inhibition (3T3-L1 [22]) | Activity (Mus musculus [23]) | inhibition (3T3-L1 [24]) | Activity (Mus musculus [25]) | Activity (3T3-L1 [26]) | Activity (Mus musculus [27]) | inhibition (3T3-L1 [28]) | Activity (Mus musculus [29]) | inhibition (3T3-L1 [30]) | inhibition (3T3-L1 [31]) | inhibition (3T3-L1 [32]) | inhibition [33] | Activity (Mus musculus [34]) | Activity (Mus musculus [35]) | inhibition (3T3-L1 [36]) | inhibition (3T3-L1 [38])
25%: Activity (Mus musculus [39])
<=60%: inhibition (INH) (3T3-L1 [7])
